pIC50: −log10 of the molar value.
Legend:
[1] = biological target: benzodiazepine receptor; assay: [3H]diazepam binding to benzodiazepine receptor (crude mitochondrial fraction of cerebral cortex); parameters: species or system male SD rats; details: inhibition of ³H-diazepam (2 nM) binding by 50%, 4 °C, 20 minutes, Tris-HCl pH 7.4; read-out: IC₅₀
Procedure: The affinity of the compound of the present invention to a benzodiazepine receptor was investigated using radioactive [³H] diazepam.
Capability of specific binding to a benzodiazepin receptor was determined in accordance with the method described in the literature [Nature, 266, 732 (1977); European J. Pharmacol., 48, 263 (1978)]. Specifically, a crude mitochondrial fraction obtained from the cerebral cortex of male SD rats at 9 to 10 weeks of age was suspended in 50 mM Tris-HCL buffer (pH 7.4), and incubated, together with several concentrations of the subject drug and ³H-diazepam (final concentration 2 nM), at 4 °C for 20 minutes. This suspension was then filtered through a Whatman GF/B glass fiber filter, and the ³H-diazepam radioactivity on the filter was measured using a liquid scintillation counter. The concentration of the subject drug at which ³H-diazepam binding was inhibited by 50% was taken as the IC₅₀ value.

[2] = test system: Male rats (SD/JCL); assay: Antianxiety action (Vogel method, anticonflict water drinking test); type: in vivo; details: for Minimum Effective Dose (MED): rats; for antianxiety action stronger than that of the racemic compounds: ratio of MED of the racemic compound to MED of the optically active compound (Table 2)

SMILES	pIC50 [1]	Minimum Effective Dose (MED) ([2]; i.p., Vogel method)	antianxiety action stronger than that of the racemic compounds [2]	Minimum Effective Dose (MED) ([2]; p.o., 30 minutes after dosing, water drinking frequency in 3 minutes)
O=C(C[C@H]1c2ccccc2C(=O)N1c1ccc2ccc(Cl)nc2n1)N1CCC(O)CC1 [Example 3, (S)-(+)-2-(7-chloro-1,8-naphthylidin-2-yl)-3-[(4-hydroxypiperidin-1-yl)carbonylmethyl]isoindolin-1-one]	9.04	Compound in Example 3 5.0 mg/kg, i.p.	4 times	
O=C(CC1c2ccccc2C(=O)N1c1ccc2ccc(Cl)nc2n1)N1CCC(O)CC1 (racemic) [Racemic compound of Example 3, 2-(7-chloro-1,8-naphthylidin-2-yl)-3-[(4-hydroxypiperidin-1-yl)carbonylmethyl]isoindolin-1-one, reference compound]	8.67	20 mg/kg, i.p.		
O=C(CC1c2ccccc2C(=O)N1c1ccc2ccc(Cl)nc2n1)N1CCC2(CC1)OCCO2 (racemic) [Racemic compound of Example 1, 2-(7-chloro-1,8-naphthylidin-2-yl)-3-[(1,4-dioxa-8-azaspiro[4.5]dec-8-yl)carbonylmethyl]isoindolin-1-one, reference compound]	9.42			10 mg/kg, p.o.
O=C(C[C@H]1c2ccccc2C(=O)N1c1ccc2ccc(Cl)nc2n1)N1CCC2(CC1)OCCO2 [Example 1, (S)-(+)-2-(7-chloro-1,8-naphthylidin-2-yl)-3-[(1,4-dioxa-8-azaspiro[4.5]dec-8-yl)carbonylmethyl]isoindolin-1-one]	9.49		8 times	
